Data taken from patent publication US4740233A, “Substituted 1,2,4-triazolo[1,5-a]-pyrimidine-2-sulfonamides and compositions and methods of controlling undesired vegetation and suppressing the nitrification of ammonium nitrogen in soil” (The Dow Chemical Company, priority 1986, dated 1988).

How the values were obtained:
yellow foxtail [1] = assay: Postemergent control of plant species; format: in vivo, Setaria lutescens; conditions: 500 ppm
Outline: (§1)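 Compounds were taken up in acetone at twice the final concentration, then diluted with an equal volume of water containing 0.1% surfactant and sprayed onto greenhouse-grown plants at the 2-4 leaf stage. Plants were kept about two weeks under growth conditions; control is growth reduction relative to untreated plants of the same species.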

sugar beet [2] = assay: Postemergent control of plant species; format: in vivo, Beta saccharifera; conditions: 500 ppm
Outline: as §1

yellow nutsedge [3] = assay: Control of aquatic plant species (paddy water); format: in vivo, Cyperus esculentus; conditions: 1.0 Kg/Ha, nine days
Outline: (§2)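 Seedlings at the 1-2 inch stage were transplanted into about 2 inches of soil and flooded to roughly 1 inch. An acetone concentrate of test chemical was injected into the paddy water, with the injected volume varied to set concentration. Percent control was rated nine days after application.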

rice [4] = assay: Postemergent control of plant species; format: in vivo, Oryza sativa; conditions: 500 ppm
Outline: as §1

crabgrass [5] = assay: Postemergent control of plant species; format: in vivo, Digitaria spp.; conditions: 500 ppm
Outline: as §1

cotton [6] = assay: Postemergent control of plant species; format: in vivo, Gossypium spp.; conditions: 500 ppm
Outline: as §1

rape [7] = assay: Postemergent control of plant species; format: in vivo, Brassica napus; conditions: 500 ppm
Outline: as §1

wild oats [8] = assay: Postemergent control of plant species; format: in vivo, Avena fatua; conditions: 500 ppm
Outline: as §1

johnson grass [9] = assay: Postemergent control of plant species; format: in vivo, Sorghum halepense; conditions: 500 ppm
Outline: as §1

pigweed = assay: Postemergent control of plant species; format: in vivo, Amaranthus spp.; conditions: 500 ppm
Outline: as §1

sprangletop = assay: Control of aquatic plant species (paddy water); format: in vivo, Leptochloa filiformis; conditions: 1.0 Kg/Ha, nine days
Outline: as §2

corn [10] = assay: Postemergent control of plant species; format: in vivo, Zea mays; conditions: 500 ppm
Outline: as §1

velvetleaf [11] = assay: Postemergent control of plant species; format: in vivo, Abutilon theophrasti; conditions: 500 ppm
Outline: as §1

barnyardgrass [12] = assay: Control of aquatic plant species (paddy water); format: in vivo, Echinochloa crusgalli; conditions: 1.0 Kg/Ha, nine days
Experimental: In testing for such utility, the plant species to be tested were transplanted into 16 oz. containers into about 2 inches of soil when they were in the 1-2 inch stage and then flooded to a depth of about 1 inch. An acetone concentrate of the chemical to be tested was then injected into the paddy water, the volume injected being varied as desired to provide the desired concentration. Percent control was evaluated nine days after application.

cocklebur = assay: Postemergent control of plant species; format: in vivo, Xanthium spp.; conditions: 500 ppm
Outline: as §1

jimsonweed [13] = assay: Postemergent control of plant species; format: in vivo, Datura stramonium; conditions: 500 ppm
Outline: as §1

[14] = tested on: nitrification of ammonium nitrogen; assay: Suppression of nitrification of ammonium nitrogen in soil; conditions: 27° C.
Outline: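 Value is % NH4-N remaining after a two-week, 27° C incubation of treated soil held at 1/3 bar tension moisture. Nitrate was measured with an ion-selective electrode after extraction with ammonium sulfate solution and 10 min shaking.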

rice [15] = assay: Control of aquatic plant species (paddy water); format: in vivo, Oryza sativa; conditions: 1.0 Kg/Ha, nine days
Outline: as §2

barnyardgrass [16] = assay: Postemergent control of plant species; format: in vivo, Echinochloa crusgalli; conditions: 500 ppm
Outline: as §1

soybean [17] = assay: Postemergent control of plant species; format: in vivo, Glycine max.; conditions: 500 ppm
Outline: as §1

sorghum [18] = assay: Postemergent control of plant species; format: in vivo, Sorghum vulgare; conditions: 500 ppm
Outline: as §1

wheat [19] = assay: Postemergent control of plant species; format: in vivo, Triticum aestivum; conditions: 500 ppm
Outline: as §1

annual morning glory [20] = assay: Postemergent control of plant species; format: in vivo, Ipomoea spp.; conditions: 500 ppm
Outline: as §1

yellow nutsedge [21] = assay: Postemergent control of plant species; format: in vivo, Cyperus esculentus; conditions: 500 ppm
Outline: as §1

jimsonweed [22] = assay: Preemergent control of plant species; format: in vivo, Datura stramonium; conditions: Datura stramonium, pre-emergence, 336 h; 0.25 lb/acre; read-out: percent preemergent control
Outline: (§3)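 Seeds sown in agricultural soil beds in a greenhouse received aqueous emulsions of test compositions applied uniformly over the bed surface at the listed rates; water-treated beds served as control. After two weeks under greenhouse growth conditions, control was scored as growth reduction versus untreated plants of the same species.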

soybean [23] = assay: Preemergent control of plant species; format: in vivo, Glycine max.; conditions: Glycine max, pre-emergence, 336 h; 0.25 lb/acre; read-out: percent preemergent control
Outline: as §3

barnyardgrass [24] = assay: Preemergent control of plant species; format: in vivo, Echinochloa crusgalli; conditions: Echinochloa crus-galli, pre-emergence, 336 h; 0.25 lb/acre; read-out: percent preemergent control
Outline: as §3

wild oats [25] = assay: Preemergent control of plant species; format: in vivo; conditions: Avena fatua, pre-emergence, 336 h; 0.25 lb/acre; read-out: percent preemergent control
Outline: as §3

annual morning glory [26] = assay: Preemergent control of plant species; format: in vivo, Ipomoea spp.; conditions: Ipomoea, pre-emergence, 336 h; 0.25 lb/acre; read-out: percent preemergent control
Outline: as §3

wheat [27] = assay: Preemergent control of plant species; format: in vivo, Triticum aestivum; conditions: Triticum aestivum, pre-emergence, 336 h; 0.25 lb/acre; read-out: percent preemergent control
Outline: as §3

corn [28] = assay: Preemergent control of plant species; format: in vivo, Zea mays; conditions: Zea mays, pre-emergence, 336 h; 0.25 lb/acre; read-out: percent preemergent control
Outline: as §3

velvetleaf [29] = assay: Preemergent control of plant species; format: in vivo, Abutilon theophrasti; conditions: Abutilon theophrasti, pre-emergence, 336 h; 0.25 lb/acre; read-out: percent preemergent control
Outline: as §3

yellow nutsedge [30] = assay: Preemergent control of plant species; format: in vivo, Cyperus esculentus; conditions: Cyperus, pre-emergence, 336 h; 0.25 lb/acre; read-out: percent preemergent control
Outline: as §3

sugar beet [31] = assay: Preemergent control of plant species; format: in vivo, Beta saccharifera; conditions: Beta vulgaris, pre-emergence, 336 h; 0.25 lb/acre; read-out: percent preemergent control
Outline: as §3

yellow foxtail [32] = assay: Preemergent control of plant species; format: in vivo, Setaria lutescens; conditions: Setaria, pre-emergence, 336 h; 0.25 lb/acre; read-out: percent preemergent control
Outline: as §3

johnson grass [33] = assay: Preemergent control of plant species; format: in vivo, Sorghum halepense; conditions: Sorghum halepense, pre-emergence, 336 h; 0.25 lb/acre; read-out: percent preemergent control
Outline: as §3

rape [34] = assay: Preemergent control of plant species; format: in vivo, Brassica napus; conditions: Brassica napus, pre-emergence, 336 h; 0.25 lb/acre; read-out: percent preemergent control
Outline: as §3

cotton [35] = assay: Preemergent control of plant species; format: in vivo, Gossypium spp.; conditions: Gossypium hirsutum, pre-emergence, 336 h; 0.25 lb/acre; read-out: percent preemergent control
Outline: as §3

rice [36] = assay: Preemergent control of plant species; format: in vivo, Oryza sativa; conditions: Oryza sativa, pre-emergence, 336 h; 0.25 lb/acre; read-out: percent preemergent control
Outline: as §3

sorghum [37] = assay: Preemergent control of plant species; format: in vivo, Sorghum vulgare; conditions: Sorghum, pre-emergence, 336 h; 0.25 lb/acre; read-out: percent preemergent control
Outline: as §3

crabgrass [38] = assay: Preemergent control of plant species; format: in vivo, Digitaria spp.; conditions: Digitaria sanguinalis, pre-emergence, 336 h; 0.25 lb/acre; read-out: percent preemergent control
Experimental: The seeds of various species of plants were planted in beds of good agricultural soil in a greenhouse. A number of compositions of the present invention, generally in the nature of an aqueous emulsion, were applied at rates listed in the table so as to deposit a predetermined amount of active ingredients uniformly throughout the surface of the bed. Another seed bed was treated only with water to serve as a control. After treatment the seed beds were maintained for two weeks under greenhouse conditions conducive for good plant growth and watered as necessary. Control refers to the reduction in growth compared to the observed results of the same untreated species.

## Cc1nc2nc(S(=O)(=O)Nc3c(Cl)cccc3Cl)nn2c2c1CCC2 [Compound 108, 6,7-cyclopentano-5-methyl-N-(2,6-dichlorophenyl)-1,2,4-triazolo[1,5-a]pyrimidine-2-sulfonamide]
Yellow foxtail [1]
  percent postemergent control: 0%
Sugar beet [2]
  percent postemergent control: 70%
Yellow nutsedge [3]
  Percent control: 90%
Rice [4]
  percent postemergent control: 0%
Crabgrass [5]
  percent postemergent control: 0%
Cotton [6]
  percent postemergent control: 70%
Rape [7]
  percent postemergent control: 40%
Wild oats [8]
  percent postemergent control: 0%
Johnson grass [9]
  percent postemergent control: 100%
pigweed
  percent postemergent control: 0%
sprangletop
  Percent control: 97%
Corn [10]
  percent postemergent control: 80%
Velvetleaf [11]
  percent postemergent control: 90%
Barnyardgrass [12]
  Percent control: 97%
cocklebur
  percent postemergent control: 80%
Jimsonweed [13]
  percent postemergent control: 30%
[14]; 0.01 ppm
  % NH4-N Remaining After 2 Weeks Incubation: 43%
[14]; 0.1 ppm
  % NH4-N Remaining After 2 Weeks Incubation: 69%
[14]; 1 ppm
  % NH4-N Remaining After 2 Weeks Incubation: 84%
[14]; 10 ppm
  % NH4-N Remaining After 2 Weeks Incubation: 90%
Rice [15]
  Percent control: 97%
Barnyardgrass [16]
  percent postemergent control: 100%
Soybean [17]
  percent postemergent control: 75%
Sorghum [18]
  percent postemergent control: 80%
Wheat [19]
  percent postemergent control: 60%
Annual morning glory [20]
  percent postemergent control: 10%
Yellow nutsedge [21]
  percent postemergent control: 35%

## COc1cccc(C(F)(F)F)c1NS(=O)(=O)c1nc2nc(C)cc(C)n2n1 [Compound 104]
Jimsonweed [22]
  pest or weed control at 280.212 g/ha: 100%
Soybean [23]
  plant injury at 280.212 g/ha: 100%
Barnyardgrass [24]
  pest or weed control at 280.212 g/ha: 100%
Wild oats [25]
  pest or weed control at 280.212 g/ha: 100%
Annual morning glory [26]
  pest or weed control at 280.212 g/ha: 100%
Wheat [27]
  plant injury at 280.212 g/ha: 100%
Corn [28]
  plant injury at 280.212 g/ha: 100%
Velvetleaf [29]
  pest or weed control at 280.212 g/ha: 100%
Yellow nutsedge [30]
  pest or weed control at 280.212 g/ha: 100%
Sugar beet [31]
  plant injury at 280.212 g/ha: 100%
Yellow foxtail [32]
  pest or weed control at 280.212 g/ha: 100%
Johnson grass [33]
  pest or weed control at 280.212 g/ha: 100%
Rape [34]
  plant injury at 280.212 g/ha: 100%
Cotton [35]
  plant injury at 280.212 g/ha: 100%
Rice [36]
  plant injury at 280.212 g/ha: 100%
Sorghum [37]
  plant injury at 280.212 g/ha: 100%
Crabgrass [38]
  pest or weed control at 280.212 g/ha: 100%
